One series relates to P. falciparum K1. The series is described as follows: In vitro P. falciparum growth inhibition, multidrug resistant K1 strain. The format is cell-based. The settings on record: Plasmodium falciparum, read-out: P. fal K1 IC50. On the procedure:
(§1) The ability of aminopyrazine derivatives according to the invention to kill P. falciparum parasites and/or to inhibit its proliferation is assayed through their ability to inhibit Plasmodium falciparum growth. Compounds were screened against multidrug resistant (K1) and sensitive (NF54) strains of P. falciparum in vitro as described by Vennerstrom et al. 2004, Nature, 430, 900-904.

The test system of another series is P. falciparum NF54. In words: In vitro P. falciparum growth inhibition, sensitive NF54 strain. The format is cell-based. Particulars: Plasmodium falciparum, read-out: P. fal. NF54 IC50. On the procedure: as §1
In a further series the target is hPI4KB (Homo sapiens, UniProt Q9UBF8). In words: PI4KB lipid kinase ADP-Glo assay. In kind it is biochemical. Particulars: ATP 10 μM, PI substrate 50 μM. On the procedure:
The compounds of the invention were tested on their ability to inhibit the human PI4K kinase. The non-radiometric ADP-Glo™ Assay (Promega, Madison, Wis., USA) was used for measuring the activity of the PI4KB lipid kinase. All kinase assays were performed in 96-well half-area microtiter plates from Greiner Bio-One (Frickenhausen, Germany) in a 25 μl reaction volume. The reaction cocktail was pipetted in 3 steps in the following order:
10 μl of ATP solution (in assay buffer, see below)
5 μl of test sample in 10% DMSO
10 μl of enzyme/substrate mixture
PI4KB assay contained 50 mM HEPES-NaOH, pH 7.5, 1 mM EGTA, 100 mM NaCl, 0.03% CHAPS, 2 mM DTT, ATP, 10 μM, PI4KB kinase, 20 ng/25 μL, PI substrate 50 μM. and3 mM MnCl2.
The reaction cocktails were incubated at 30° C. for 40 minutes. The reaction was stopped with 25 μl ADP-Glo reagent per well. Plates were incubated for 40 minutes at room temperature, followed by addition of 50 μl kinase detection reagent per well and incubation for further 60 minutes at room temperature. Signal was measured with a microplate multilable reader (Victor2, Perkin Elmer, Boston, Mass., USA), in luminescence mode.
All assays were performed with a BeckmanCoulter Biomek 2000/SL robotic system. The median value of the counts (n=8) of each assay plate was defined as “low control”. This value reflects unspecific binding of radioactivity to the plate in the absence of a protein kinase but in the presence of the substrate. […]
As part of the data evaluation the low control value from a particular plate was subtracted from the high control value as well as from all 80 “compound values” of the corresponding plate. The residual activity (in %) for each well of a particular plate was calculated by using the following formula (i): Res. Activity (%)=100×[(cpm of compound−low control)/(high control−low control)] […]
The residual activities for each concentration and the compound IC50 values were calculated using Quattro Workflow V3.1.0 (Quattro Research GmbH, Munich, Germany; www.quattro-research.com). […]
Background: ADP-Glo turns the ADP formed in a reaction into a luminescent signal.

A short description of series [1]: Kinetic solubility by HPLC. The format is physicochemical. Particulars: kinetic from dmso stock, room temperature. The procedure: Dilutions were prepared to a theoretical concentration of 200 μM (n=2) in phosphate buffered saline (PBS) pH 6.5 (in 2% DMSO), in 0.01 M HCl pH 2 (in 2% DMSO) and in biologically relevant gastrointestinal media, fasted state simulated intestinal fluid, FaSSIF (in 2% DMSO). Calibration curves (11-220 μM) were prepared in DMSO. All dilutions were equilibrated at room temperature and mixed for 2 hours on an orbital shaker. The concentration of the test compounds was determined by HPLC using a Kinetex C18 column (2.1 mm×50 mm, 2.6 μm) at a column temperature of 35° C. An injection volume of 5 μL was used with a mobile phase flow rate of 0.6 mL/min. The mobile phase gradient method was as follows in Table 1: […]
Mobile phase A: 0.1% formic acid in 5% acetonitrile/water (v/v) (pH 3.1)
Mobile phase B: 0.1% formic acid in acetonitrile (pH 3.1)
Compound concentration (x) in the PBS/FASSIF/HC1 samples was calculated from the peak area (y) in the UV chromatogram by extrapolation from a three point calibration curve using the relationship: y=ax+b, where a is the slope and b is the intercept. Solubility was reported in the range <5-220 μM.

Series [2] in a line: Pharmacokinetics in rats (iv and oral). The format is in vivo. Particulars: rat; for Apparent T1/2 / Plasma Cl / Vd: 5.0 mg/kg iv. On the procedure: Compounds of the invention were tested for their pharmacokinetics in rats according to the protocol below. Two different formulations were used to dose the compound of the invention as described in Table 3 below
Compound (1) was prepared for administration immediately prior to the experiment. The dose was prepared according to the average weight of the animals and an assumed volume of 350 μL of vehicle (IV) or 1000 μL of vehicle (oral). Volumes were adjusted io for each animal's individual weight to dose the compound at 5 mg/kg for the IV group (n=3 rats) and 20 mg/kg to the oral group (n=3). Water was supplied ad libitum, but animals were starved for 12 hours prior to dosing. Food was reinstated 5 hours post-dose.
The orally-treated animals were dosed by gavage with the drug introduced as a bolus. The IV-treated animals were anaesthetized and the drug was administered by infusion over a period of 2 minutes. Doses were staggered to allow for accurately timed sampling. Blood was collected at predetermined time-points to evaluate the kinetic profile over 24-48 hours. Blood sampling schedule, measured in hours post-dose, for the two groups of rats after the administration of Compound (1) are presented in Table 4 below:
Whole blood was collected via the tail vein into heparinised microcentrifugation tubes and stored on ice. Within 60 minutes of collection, samples were transferred to a freezer and stored at −80 ° C. until analysis was carried out via LC/MS/MS.
The extraction process was carried out on ice. To extract the drug for analysis, 30 μL of whole blood from each sample as well as from a series of standards and quality controls was transferred to a 96-well plate. A volume of 90 μL of cold methanol containing a suitable internal standard (approx. 60 ng/mL was added to each well and the plate was sealed and vortexed vigorously for 60 seconds to precipitate the proteins and release the compounds into the solvent). These were then centrifuged at 10000 G for 10 minutes to pellet the proteins and cellular debris, and the supernatant was transferred to a duplicate 96-well plate. The plate was transferred to the LC/MS/MS and held at 4° C. until all samples were injected onto the column.
LC/MS/MS analysis was carried out with 5 μL of each sample, using a method which was developed for simultaneous detection of compound (1) and the internal standard using a Phenomenex Hydro-RP column at 20° C. The mobile phase utilized acetonitrile containing 0.1% formic acid (v/v) as the organic component, and 0.1% (v/v) formic acid in water as the aqueous component. The mobile phase ran as a gradient at 400 μL/min, with the organic component increasing from 5% to 95% over 4 minutes before re-equilibration. The assay was calibrated over the range 2-6250 ng/mL (0.0056 μM-17.44 μM).

The mark [3] stands for this setting: FaSSIF pH 6.5, 2% DMSO, read-out: Kinetic Solubility Fassif pH6.5.
The mark [4] stands for this setting: phosphate buffered saline, aqueous buffer, PBS pH 6.5, 2% DMSO, read-out: Kinetic Solubility pH 6.5.
Setting [5] is: 20.0 mg/kg po vs 5.0 mg/kg iv (Reference 1 column prints iv).

Structures are written as SMILES. Values after ≈ are worked out from the molar mass of the structure shown. Where two headings read alike, the source gives them in different places. Where only a bound is given, the exact number is not on record here.

Sequence of hPI4KB (Q9UBF8 whole entry): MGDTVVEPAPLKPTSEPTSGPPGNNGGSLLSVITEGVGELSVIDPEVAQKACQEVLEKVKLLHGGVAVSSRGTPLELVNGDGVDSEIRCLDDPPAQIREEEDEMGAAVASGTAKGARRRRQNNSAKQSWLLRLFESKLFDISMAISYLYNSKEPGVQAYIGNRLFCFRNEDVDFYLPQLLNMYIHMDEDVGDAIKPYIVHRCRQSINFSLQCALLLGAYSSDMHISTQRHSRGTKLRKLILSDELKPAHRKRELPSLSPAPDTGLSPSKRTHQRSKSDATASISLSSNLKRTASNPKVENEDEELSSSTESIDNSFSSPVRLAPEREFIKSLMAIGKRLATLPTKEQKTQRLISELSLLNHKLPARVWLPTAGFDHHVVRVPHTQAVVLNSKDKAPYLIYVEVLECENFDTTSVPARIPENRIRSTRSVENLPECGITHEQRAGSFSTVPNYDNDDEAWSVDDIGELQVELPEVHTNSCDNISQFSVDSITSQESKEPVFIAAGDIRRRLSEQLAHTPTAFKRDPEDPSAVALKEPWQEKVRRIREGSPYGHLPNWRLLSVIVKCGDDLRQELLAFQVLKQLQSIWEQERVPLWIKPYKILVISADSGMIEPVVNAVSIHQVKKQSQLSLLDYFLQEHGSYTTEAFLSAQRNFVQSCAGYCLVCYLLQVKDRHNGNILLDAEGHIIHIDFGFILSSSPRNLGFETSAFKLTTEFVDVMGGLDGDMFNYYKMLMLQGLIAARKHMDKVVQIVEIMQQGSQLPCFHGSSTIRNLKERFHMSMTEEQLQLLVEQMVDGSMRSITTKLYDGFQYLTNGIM

As for `Nc1ncc(-c2ccc(C(=O)O)cc2)nc1-c1ccc(C(F)(F)F)cc1` [Compound (1), 4-(5-amino-6-(4-(trifluoromethyl)phenyl)pyrazin-2-yl)benzoic acid], the IC50 in the series with P. falciparum K1 came out at 32 nM; with P. falciparum NF54 it was 33 nM; on hPI4KB it was 7700 nM. In addition, the solubility (kinetic) at 2 h in series [1] (setting [3]) came out at 178 µM (≈ 64 µg/mL); in series [1] (setting [4]), 180 µM (≈ 64.7 µg/mL). Also, the “Apparent T1/2” value in series [2] is reported as 4.9 h. The “Plasma Cl” value in series [2] was 10.1 mL/min/kg. For the same molecule, in series [2], the Vd is listed as 4.3 L/kg. In series [2] ([…] po vs 5.0 mg/kg iv), the “Oral Bioavailability” value was determined as 94%.
As for `Nc1ncc(-c2ccc(C(=O)O)cc2)nc1-c1ccc(C(F)(F)F)nc1` [Compound (2), 4-(5-amino-6-(6-(trifluoromethyl)pyridin-3-yl)pyrazin-2-yl)benzoic acid], the half-maximal inhibitory concentration (IC50) turned out to be 24 nM in the series with P. falciparum K1, 26 nM in the series with P. falciparum NF54 and 23000 nM against hPI4KB. Further, the figures for the kinetic solubility at 2 h in series [1] (setting [3]) and in series [1] (setting [4]) were 199 µM (≈ 71.7 µg/mL) and 187 µM (≈ 67.4 µg/mL), respectively. The “Apparent T1/2” value in series [2] is listed as 4.4 h. Further, the “Plasma Cl” value in series [2] was found to be 16.7 mL/min/kg. Moreover, the Vd in series [2] turned out to be 6.4 L/kg. The “Oral Bioavailability” value in series [2] (setting [5]) worked out at 38%.
Consider `NC(=O)c1ccc(-c2cnc(N)c(-c3ccc(C(F)(F)F)cc3)n2)cc1` [Reference 1, reference compound], for which the IC50 with P. falciparum K1 was 14 nM; in the series with P. falciparum NF54, 13 nM; against hPI4KB it was 5000 nM. Besides, the figures for the kinetic solubility at 2 h in series [1] (setting [3]) and in series [1] (setting [4]) were 115 µM (≈ 41.2 µg/mL) and < 5 µM, respectively. In addition, the “Apparent T1/2” value in series [2] was 1.0 h. Further, the “Plasma Cl” value in series [2] was 39 mL/min/kg. This molecule also registered a Vd in series [2] of 3.5 L/kg. In series [2] (setting [5]), the “Oral Bioavailability” value is 25%.

For orientation: IC50 means the midpoint of a concentration-inhibition curve. A word on the solubility (kinetic): it is solubility judged after dilution from a stock solution rather than from solid.

Source of the values: patent publication US10214495B2, “Anti-malarial agents” (MMV MEDICINES FOR MALARIA VENTURE, priority 2015, dated 2019).
